The term IC50 denotes the concentration that gives 50% inhibition. For orientation: inhibition means the relative decrease from the control value, in per cent. The low end stands for little suppression, the high end for strong suppression.

This note sets out measurements from US8410170B2, “Use of isothiocyanates compounds in treating prostatic diseases and skin cancer” (Wuxi JC Pharmaceutical Technology Co., Ltd., priority 2005, dated 2013).

Molecules are shown by their SMILES.

For one experiment, the system named is LNCaP AD. Description: MTT growth inhibition, hormone dependent LNCaP AD. The conditions noted are these: Homo sapiens, LNCaP, 168 h, read-out: IC50, growth inhibition. The class given is cell-based. An excerpt: (§1) The human prostate cancer cell line LNCaP AD was purchased from the American Type Culture Collection. LNCaP AI cell line was derived from LNCaP cells using a method described previously by Gao et al. (Gao, M., Ossowski, L., and Ferrari, A. C. Activation of Rb and decline in androgen receptor protein precede retinoic acid-induced apoptosis in androgen-dependent LNCaP cells and their androgen-independent derivative. J Cell Physiol, 179: 336-346, 1999). The AD and AI cells were maintained in RPMI-1640 with 10% fetal bovine serum (FBS) and charcoal stripped fetal bovine serum, penicillin-streptomycin for incubation at 5% CO2 and 37° C. respectively.
(§2) MTT: MTT and SRB method were used to determine the effects of various isothiocyanates on cell growth as described previously (Kreis, Budman et al, 1997). Briefly, human prostate cancer cell line LNCaP grown exponentially were aliquoted into 96-well plates at a density of 2500 cells/200 μl per well. Twenty-four hrs after the incubation, the cells were exposed for seven days to serial dilutions of indicated isothiocyanate or paclitaxel. […] The absorbance was measured at wavelength 540 nm. The percent of cell survival (T/C%) were calculated based on the results of test groups to that of the control group. […]

A further experiment addresses T1, Sp1 (Homo sapiens, UniProt P08047).
T1 construct: endogenous in cells; host or cells: LNCaP AD cells, nuclear extract
Description: Mobility gel shift assay (EMSA) of Sp1-DNA binding. The class given is cell-based. The conditions noted are these: AD cells exposed 24 hrs. As for the experimental part: EMSA was performed according to modern technology. […] The extraction of nuclear proteins was performed as described previously (Wang, L. G., Liu, X. M., Kreis, W., and Budman, D. R. Down-regulation of prostate-specific antigen expression by finasteride through inhibition of complex formation between androgen receptor and steroid receptor-binding consensus in the promoter of the PSA gene in LNCaP cells. Cancer Res, 57: 714-719, 1997). Five μg of nuclear proteins was reacted for 30 minutes at room temperature with the [^32P]-labeled Sp1 oligonucleotide or their corresponding mutants oligonucleotide probe in binding buffer containing […] dIdC to increase the specificity of the reaction. The reaction mixtures were then subjected to electrophoresis in 8% native polyacrylamide gel(PAGE). The binding complexes were visualized by exposing the dried gel to X-ray film.
For orientation: A gel shift assay detects complexes by their altered migration in electrophoresis.

The subject of the next experiment is PSA. Description: Western blot to detect PSA in LNCaP cells. The class given is cell-based, human. The settings on record: 24 hrs. As for the experimental part:
The cells were harvested, washed and total cellular proteins were extracted as described previously (as Example 2). Fifty μg proteins were then subjected to electrophoresis in SDS-PAGE, electro-transferred to nitrocellulose filters, and immunoblotted initially with antibodies against AR, Sp1, and PSA. The same membranes were stripped and re-probed with β-actin for loading control. The result was recorded by ECL films.
A general note: In western blotting, separated proteins are transferred to a membrane and probed.

In a further experiment the test system is LNCaP AI. Description: MTT growth inhibition, hormone independent LNCaP AI. The settings on record: Homo sapiens, LNCaP, 168 h, read-out: IC50, growth inhibition. The class given is cell-based.
Description: as §1, §2

The subject of a further experiment is transcription factor Sp1. Briefly: Sp1-luc luciferase activity assay in transfected LNCaP AD cells. The class given is cell-based, human. The conditions noted are these: 24 hrs. An excerpt:
The Sp1-luc and mtSp1-luc contain three tandem repeats of consensus Sp1 sites driving the luciferase gene and its mutant. […] Effectene transfection reagent and luciferase assay kit were acquired from Qiagen (Valencia, Calif., USA) and Promega (Madison, Wis., USA). Reagents for protein electrophoresis were purchased from Bio-Rad company (USA). The other chemicals were purchased from Sigma (St. Louis, Mo.) otherwise as indicated. […] (Gao, M., Ossowski, L., and Ferrari, A. C. Activation of Rb and decline in androgen receptor protein precede retinoic acid-induced apoptosis in androgen-dependent LNCaP cells and their androgen-independent derivative. J Cell Physiol, 179: 336-346, 1999). The AD and AI cells were maintained in RPMI-1640 with 10% fetal bovine serum (FBS) and charcoal stripped fetal bovine serum, penicillin-streptomycin for incubation at 5% CO2 and 37° C. respectively. […] After incubation for 24 hrs at 5% CO2 and 37° C., the cells were transfected with 1 μg/dish of SP1-luciferase gene (Sp1-luc), or its mutant mtSp1-luc using Effectene (Qiagen, Valencia, Calif.) as the transfection reagent. […] The cells were collected, washed, lysed, and the lysates were used for luciferase activity assay using Promega luciferase assay system.

The subject of a further experiment is B16 mouse melanoma cells. Briefly: MTT cell growth inhibition, B16 melanoma. The format is cell-based. As for the experimental part:
B16 mouse melanoma cells at exponential growth phase were digested by 0.25% trypsin, adjusted to the density of 3˜5×10^4/mL by adding the above working RPMI 1640 medium, sed into 96-well dishes at 150 μl per well, under normal culture conditions mentioned above. […] Equal volume of the working RPMI 1640 medium was added into the wells of the control group. Each group had four wells. After incubation, discarded the supernatant, added 150 μl D-Hanks per well, washed, discarded the supernatant. After adding 100 μl MTT (0.5 mg/mL), incubated for another 4 hrs. Discarded the supernatant, added 150 μl DMSO, kept at 37° C. for 10 mins. Absorbance was measured at wavelength of 570 nm.

T1 sequence (P08047 whole entry): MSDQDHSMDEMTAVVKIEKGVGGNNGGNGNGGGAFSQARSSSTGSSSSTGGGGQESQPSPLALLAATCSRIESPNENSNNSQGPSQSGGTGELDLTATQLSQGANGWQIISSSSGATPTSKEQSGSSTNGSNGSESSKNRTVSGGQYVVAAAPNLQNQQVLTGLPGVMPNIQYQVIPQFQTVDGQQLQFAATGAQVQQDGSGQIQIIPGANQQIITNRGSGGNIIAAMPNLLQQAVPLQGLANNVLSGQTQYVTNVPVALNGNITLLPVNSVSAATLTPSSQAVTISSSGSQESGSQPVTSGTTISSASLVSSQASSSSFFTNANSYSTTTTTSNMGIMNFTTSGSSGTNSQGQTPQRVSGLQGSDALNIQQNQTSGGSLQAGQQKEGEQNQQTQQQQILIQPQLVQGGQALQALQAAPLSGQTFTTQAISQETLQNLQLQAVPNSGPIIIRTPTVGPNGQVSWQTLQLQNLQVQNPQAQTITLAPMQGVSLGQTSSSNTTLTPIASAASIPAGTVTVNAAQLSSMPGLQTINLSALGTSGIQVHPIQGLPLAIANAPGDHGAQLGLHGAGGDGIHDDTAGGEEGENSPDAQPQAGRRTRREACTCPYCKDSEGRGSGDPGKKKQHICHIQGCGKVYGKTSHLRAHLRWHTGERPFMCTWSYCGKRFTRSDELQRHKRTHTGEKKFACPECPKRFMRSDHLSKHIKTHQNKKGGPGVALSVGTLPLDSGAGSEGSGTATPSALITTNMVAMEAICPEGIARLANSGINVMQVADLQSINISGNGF

Take `S=C=NCCc1ccccc1` [PEITC, phenethyl isothiocyanate]: the IC50 is 600 nM in the experiment on LNCaP AD, 600 nM in the experiment with LNCaP AI and 10000 to 20000 nM with B16 mouse melanoma cells (B16 mouse melanoma cell line). For the same molecule, the “binding activity to Sp1 specific oligonucleotide of nuclear proteins (EMSA)” value at Sp1 was “significantly reduced”. Besides, the “expression of PSA (Western blot)” value in the experiment with PSA is recorded as “significantly inhibited”. The “luciferase activity of Sp1-luc transfected gene” value in the experiment with transcription factor Sp1 is “significantly decreased”. In addition, testing at 2.5 µM in the experiment with B16 mouse melanoma cells (Mus musculus, B16, 48 h, 2.5 μmol/L, 48 h, B16) gave an inhibition of 14.5%. The molecule further had an inhibition at 5 µM in the experiment on B16 mouse melanoma cells (Mus musculus, B16, 48 h, 5.0 μmol/L, 48 h, B16) of 27.9%. The inhibition at 7.5 µM with B16 mouse melanoma cells (Mus musculus, B16, 48 h, 7.5 μmol/L, 48 h, B16) worked out at 36.7%. Also, in the experiment with B16 mouse melanoma cells (Mus musculus, B16, 48 h, 10.0 μmol/L, 48 h, B16), testing at 10 µM gave an inhibition of 49.2%. The inhibition at 12.5 µM in the experiment with B16 mouse melanoma cells (Mus musculus, B16, 48 h, 12.5 μmol/L, 48 h, B16) is 58.4%. In the experiment with B16 mouse melanoma cells (Mus musculus, B16, 48 h, 15.0 μmol/L, 48 h, B16), this molecule registered an inhibition at 15 µM of 63.7%. Also, 20 µM produced 77.3% inhibition in the experiment with B16 mouse melanoma cells (Mus musculus, B16, 48 h, 20.0 μmol/L, 48 h, B16). This molecule registered an inhibition at 30 µM in the experiment with B16 mouse melanoma cells (Mus musculus, B16, 48 h, 30.0 μmol/L, 48 h, B16) of 89.6%. This molecule came in with an inhibition at 40 µM in the experiment with B16 mouse melanoma cells (Mus musculus, B16, 48 h, 40.0 μmol/L, 48 h, B16) of over 96%.
